The values that follow are results of earlier work, collected in patent US10045993B2, “Pharmaceutical preparation containing entecavir as active ingredient, and preparation method therefor” (CTC BIO, INC., priority 2014, dated 2018).

The conditions of this data set: pH 7.9, 25° C. (room temperature).

In the case of `C=C1[C@H](CO)[C@@H](O)C[C@@H]1n1cnc2c(=O)[nH]c(N)nc21` [Entecavir, [1-S-(1α,3α,4β)]-2-amino-1,9-dihydro-9-[4-hydroxy-3-(hydroxymethyl)-2-methylenecyclopentyl]-6H-purin-6-one], the moisture solubility is 2.4 mg/mL.
